Broadly, the IC50 is the concentration that gives 50% inhibition. Higher therefore signals weaker potency.

PI3Kδ, sequence (O00329 whole entry, canonical isoform): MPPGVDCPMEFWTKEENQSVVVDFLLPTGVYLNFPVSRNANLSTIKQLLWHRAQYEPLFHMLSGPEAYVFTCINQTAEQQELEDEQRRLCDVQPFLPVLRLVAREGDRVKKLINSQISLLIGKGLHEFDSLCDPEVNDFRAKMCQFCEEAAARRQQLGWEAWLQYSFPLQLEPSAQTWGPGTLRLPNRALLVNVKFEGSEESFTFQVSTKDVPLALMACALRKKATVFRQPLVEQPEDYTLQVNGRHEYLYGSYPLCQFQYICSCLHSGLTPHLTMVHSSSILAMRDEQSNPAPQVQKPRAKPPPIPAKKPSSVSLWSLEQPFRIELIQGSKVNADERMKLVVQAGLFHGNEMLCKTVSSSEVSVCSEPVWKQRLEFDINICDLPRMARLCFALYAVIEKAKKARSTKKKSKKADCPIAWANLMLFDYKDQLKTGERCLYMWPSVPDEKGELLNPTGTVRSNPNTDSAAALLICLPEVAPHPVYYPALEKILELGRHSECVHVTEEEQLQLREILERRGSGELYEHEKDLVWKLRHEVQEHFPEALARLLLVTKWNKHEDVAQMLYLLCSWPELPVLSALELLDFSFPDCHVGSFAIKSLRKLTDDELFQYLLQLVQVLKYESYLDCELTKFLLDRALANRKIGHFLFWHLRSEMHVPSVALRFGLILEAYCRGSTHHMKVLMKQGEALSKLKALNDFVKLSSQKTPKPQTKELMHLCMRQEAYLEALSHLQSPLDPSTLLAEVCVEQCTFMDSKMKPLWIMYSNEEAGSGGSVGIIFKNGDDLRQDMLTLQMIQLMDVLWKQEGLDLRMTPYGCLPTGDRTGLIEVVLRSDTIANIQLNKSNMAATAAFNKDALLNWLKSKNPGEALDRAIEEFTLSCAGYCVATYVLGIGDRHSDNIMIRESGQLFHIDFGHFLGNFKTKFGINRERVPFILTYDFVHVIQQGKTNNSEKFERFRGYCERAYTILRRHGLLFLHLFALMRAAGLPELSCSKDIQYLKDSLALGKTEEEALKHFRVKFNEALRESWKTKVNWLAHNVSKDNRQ
PI3Kδ, sequence (P27986 whole entry partner, canonical isoform): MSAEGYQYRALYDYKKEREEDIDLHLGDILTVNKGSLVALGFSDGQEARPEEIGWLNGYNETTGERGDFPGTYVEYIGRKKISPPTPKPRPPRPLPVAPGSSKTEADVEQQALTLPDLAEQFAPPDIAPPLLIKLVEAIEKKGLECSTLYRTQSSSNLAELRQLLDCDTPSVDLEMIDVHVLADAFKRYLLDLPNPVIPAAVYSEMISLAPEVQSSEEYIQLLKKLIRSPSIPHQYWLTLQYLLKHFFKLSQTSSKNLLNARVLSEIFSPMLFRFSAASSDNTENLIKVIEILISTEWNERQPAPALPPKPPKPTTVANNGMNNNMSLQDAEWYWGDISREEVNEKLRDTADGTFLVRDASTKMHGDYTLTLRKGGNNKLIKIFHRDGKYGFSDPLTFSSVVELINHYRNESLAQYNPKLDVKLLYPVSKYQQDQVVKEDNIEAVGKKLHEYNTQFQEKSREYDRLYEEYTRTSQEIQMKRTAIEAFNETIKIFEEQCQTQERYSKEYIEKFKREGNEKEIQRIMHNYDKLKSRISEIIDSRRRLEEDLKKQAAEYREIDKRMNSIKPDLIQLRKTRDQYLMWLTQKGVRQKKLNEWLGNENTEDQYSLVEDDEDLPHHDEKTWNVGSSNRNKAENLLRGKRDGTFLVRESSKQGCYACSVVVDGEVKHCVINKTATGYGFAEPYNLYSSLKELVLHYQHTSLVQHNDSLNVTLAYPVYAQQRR

The test concerns the target PI3Kδ (Homo sapiens (Human), UniProt O00329). Kind of test: PI3K Enzyme Assay (Example A2), [γ-33P]ATP filter plate. It counts as biochemical. As to the method: Example A2: PI3K Enzyme Assay
Lipid kinase substrate, phosphoinositol-4,5-bisphosphate (PIP2), are purchased from Echelon Biosciences (Salt Lake City, Utah). PI3K isoforms α, β, δ and γ are purchased from Millipore (Bedford, Mass.). ATP, MgCl2, DTT, EDTA, MOPS and CHAPS are purchased from Sigma-Aldrich (St. Louis, Mo.).
The kinase reaction are conducted in clear-bottom 96-well plate from Thermo Fisher Scientific in a final volume of 24 μL. Inhibitors are first diluted serially in DMSO and added to the plate wells before the addition of other reaction components. The final concentration of DMSO in the assay is 0.5%. The PI3K assays are carried out at room temperature in 20 mM MOPS, pH 6.7, 10 mM MgCl2, 5 mM DTT and CHAPS 0.03%. The reaction mixture is prepared containing 50 µM PIP2, kinase and varying concentration of inhibitors. Reactions are initiated by the addition of ATP containing 2.2 μCi [γ-^33P]ATP to a final concentration of 1000 μM. The final concentration of PI3K isoforms α, β, δ and γ in the assay were 1.3, 9.4, 2.9 and 10.8 nM, respectively. Reactions are incubated for 180 minutes and terminated by the addition of 100 μL of 1 M potassium phosphate pH 8.0, 30 mM EDTA quench buffer. A 100 μL aliquot of the reaction solution are then transferred to 96-well Millipore MultiScreen IP […] PVDF filter plate (The filter plate is prewetted with 200 μL 100% ethanol, distilled water, and 1 M potassium phosphate pH 8.0, respectively). The filter plate is aspirated on a Millipore Manifold under vacuum and washed with 18×200 μL wash buffer containing 1 M potassium phosphate pH 8.0 and 1 mM ATP. After drying by aspiration and blotting, the plate is air dried in an incubator at 37° C. overnight. Packard TopCount adapter (Millipore) is then attached to the plate followed with addition of 120 μL Microscint 20 scintillation cocktail (Perkin Elmer) in each well. After the plate sealing, the radioactivity of the product is determined by scintillation counting on Topcount (Perkin-Elmer). IC50 determination is performed by fitting the curve of percent control activity versus the log of the inhibitor concentration using the GraphPad Prism 3.0 software.
The compound `CC(=O)N1CC(N2Cc3c(F)c(Cl)cc(C(C)n4nc(C)c5c(N)ncnc54)c3OC(C)C2=O)C1` (single isomer, unassigned) [Example 72, 4-(1-Acetylazetidin-3-yl)-9-[1-(4-amino-3-methyl-1H-pyrazolo[3,4-d]pyrimidin-1-yl)ethyl]-7-chloro-6-fluoro-2-methyl-4,5-dihydro-1,4-benzoxazepin-3(2H)-one] had a 50% inhibitory concentration (IC50) of 100 to 500 nM. The compound `Cc1nn(C(C)c2cc(Cl)c(C#N)c3c2OCCN(C2CN(CCO)C2)C3)c2ncnc(N)c12` (stereo not drawn) [Example 47, 9-[1-(4-amino-3-methyl-1H-pyrazolo[3,4-d]pyrimidin-1-yl)ethyl]-7-chloro-4-[1-(2-hydroxyethyl)azetidin-3-yl]-2,3,4,5-tetrahydro-1,4-benzoxazepine-6-carbonitrile] returned an IC50 of at most 100 nM. Compound `Cc1nn(C(C)c2cc(Cl)c(C#N)c3c2OC(C)CN(CCO)C3)c2ncnc(N)c12` (single isomer, unassigned) [Example 64, 9-[1-(4-Amino-3-methyl-1H-pyrazolo[3,4-d]pyrimidin-1-yl)ethyl]-7-chloro-4-(2-hydroxyethyl)-2-methyl-2,3,4,5-tetrahydro-1,4-benzoxazepine-6-carbonitrile] registered an IC50 of 100 to 500 nM.

`Cc1nn(C(C)c2cc(Cl)c(F)c3c2OC(C)CN(C2CN(C(N)=O)C2)C3)c2ncnc(N)c12` (single isomer, unassigned) [Example 84, 3-[9-[1-(4-amino-3-methyl-1H-pyrazolo[3,4-d]pyrimidin-1-yl)ethyl]-7-chloro-6-fluoro-2-methyl-2,3-dihydro-1,4-benzoxazepin-4(5H)-yl]azetidine-1-carboxamide] displayed an IC50 of at most 100 nM. In the case of `CC(=O)N1CC(N2Cc3c(F)c(Cl)cc(C(C)n4nc(C)c5c(N)ncnc54)c3OC(C)C2)C1` (single isomer, unassigned) [Example 31, 1-{1-[4-(1-Acetylazetidin-3-yl)-7-chloro-6-fluoro-2-methyl-2,3,4,5-tetrahydro-1,4-benzoxazepin-9-yl]ethyl}-3-methyl-1H-pyrazolo[3,4-d]pyrimidin-4-amine], the IC50 is above 800 nM.

For the compound `Cc1nn(C(C)c2cc(Cl)c(F)c3c2OC(C)CN(C2CN(S(N)(=O)=O)C2)C3)c2ncnc(N)c12` (single isomer, unassigned) [Example 81, 3-[9-[1-(4-amino-3-methyl-1H-pyrazolo[3,4-d]pyrimidin-1-yl)ethyl]-7-chloro-6-fluoro-2-methyl-2,3-dihydro-1,4-benzoxazepin-4(5H)-yl]azetidine-1-sulfonamide], the 50% inhibitory concentration (IC50) is at most 100 nM. As for `Cc1nn(C(C)c2cc(Cl)c(C#N)c3c2OCCN(C2CN(S(C)(=O)=O)C2)C3)c2ncnc(N)c12` (stereo not drawn) [Example 90, 9-[1-(4-amino-3-methyl-1H-pyrazolo[3,4-d]pyrimidin-1-yl)ethyl]-7-chloro-4-[1-(methylsulfonyl)azetidin-3-yl]-2,3,4,5-tetrahydro-1,4-benzoxazepine-6-carbonitrile], the IC50 is at most 100 nM. `CCNC(=O)N1CC(N2Cc3c(C#N)c(Cl)cc(C(C)n4nc(C)c5c(N)ncnc54)c3OC(C)C2)C1` (single isomer, unassigned) [Example 97, 3-[9-[1-(4-amino-3-methyl-1H-pyrazolo[3,4-d]pyrimidin-1-yl)ethyl]-7-chloro-6-cyano-2-methyl-2,3-dihydro-1,4-benzoxazepin-4(5H)-yl]-N-ethylazetidine-1-carboxamide] returned a half-maximal inhibitory concentration (IC50) of at most 100 nM.

As for `CCOC(=O)N1CC(N2Cc3c(C#N)c(Cl)cc(C(C)n4nc(C)c5c(N)ncnc54)c3OC(C)C2)C1` (single isomer, unassigned) [Example 99, ethyl 3-[9-[1-(4-amino-3-methyl-1H-pyrazolo[3,4-d]pyrimidin-1-yl)ethyl]-7-chloro-6-cyano-2-methyl-2,3-dihydro-1,4-benzoxazepin-4(5H)-yl]azetidine-1-carboxylate], the IC50 is at most 100 nM. The compound `Cc1nn(C(C)c2cc(Cl)c(C#N)c3c2OC(C)CN(CC#N)C3)c2ncnc(N)c12` (single isomer, unassigned) [Example 108, 9-[1-(4-amino-3-methyl-1H-pyrazolo[3,4-d]pyrimidin-1-yl)ethyl]-7-chloro-4-(cyanomethyl)-2-methyl-2,3,4,5-tetrahydro-1,4-benzoxazepine-6-carbonitrile] showed a concentration for half-maximal inhibition (IC50) of at most 100 nM. Then `Cc1nn(C(C)c2cc(Cl)c(F)c3c2OC(C)CN(C2CN(C(=O)OC(C)(C)C)C2)C3)c2ncnc(N)c12` (single isomer, unassigned) [Example 26, tert-Butyl 3-[9-[1-(4-amino-3-methyl-1H-pyrazolo[3,4-d]pyrimidin-1-yl)ethyl]-7-chloro-6-fluoro-2-methyl-2,3-dihydro-1,4-benzoxazepin-4(5H)-yl]azetidine-1-carboxylate], with at most 100 nM. Compound `Cc1nn(C(C)c2cc(Cl)c(C#N)c3c2OC(C)CN(CC(C)(C)O)C3)c2ncnc(N)c12` (single isomer, unassigned) [Example 66, 9-[1-(4-Amino-3-methyl-1H-pyrazolo[3,4-d]pyrimidin-1-yl)ethyl]-7-chloro-4-(2-hydroxy-2-methylpropyl)-2-methyl-2,3,4,5-tetrahydro-1,4-benzoxazepine-6-carbonitrile] returned a 50% inhibitory concentration (IC50) of at most 100 nM. The compound `Cc1nn(C(C)c2cc(Cl)c(F)c3c2OCCN(C2CN(S(=O)(=O)N(C)C)C2)C3)c2ncnc(N)c12` (stereo not drawn) [Example 74, 3-[9-[1-(4-amino-3-methyl-1H-pyrazolo[3,4-d]pyrimidin-1-yl)ethyl]-7-chloro-6-fluoro-2,3-dihydro-1,4-benzoxazepin-4(5H)-yl]-N,N-dimethylazetidine-1-sulfonamide] registered an IC50 of at most 100 nM. In turn, `Cc1nn(C(C)c2cc(Cl)c(C#N)c3c2OC(C)CN(C2CN(S(C)(=O)=O)C2)C3)c2ncnc(N)c12` (single isomer, unassigned) [Example 93, 9-[1-(4-amino-3-methyl-1H-pyrazolo[3,4-d]pyrimidin-1-yl)ethyl]-7-chloro-2-methyl-4-[1-(methylsulfonyl)azetidin-3-yl]-2,3,4,5-tetrahydro-1,4-benzoxazepine-6-carbonitrile] showed an IC50 of at most 100 nM. `Cc1nn(C(C)c2cc(Cl)c(C#N)c3c2OC(C)CN(C2CN(S(C)(=O)=O)C2)C3)c2ncnc(N)c12` (single isomer, unassigned) [Example 94, 9-[1-(4-amino-3-methyl-1H-pyrazolo[3,4-d]pyrimidin-1-yl)ethyl]-7-chloro-2-methyl-4-[1-(methylsulfonyl)azetidin-3-yl]-2,3,4,5-tetrahydro-1,4-benzoxazepine-6-carbonitrile] returned a concentration for half-maximal inhibition (IC50) of at most 100 nM. In the case of `CCOC(=O)N1CC(N2CCOc3c(C(C)n4nc(C)c5c(N)ncnc54)cc(Cl)c(C#N)c3C2)C1` (stereo not drawn) [Example 92, ethyl 3-[9-[1-(4-amino-3-methyl-1H-pyrazolo[3,4-d]pyrimidin-1-yl)ethyl]-7-chloro-6-cyano-2,3-dihydro-1,4-benzoxazepin-4(5H)-yl]azetidine-1-carboxylate], the IC50 is at most 100 nM. In the case of `Cc1nn(C(C)c2cc(Cl)c(C#N)c3c2OCCN(C2CN(C(=O)NC(C)C)C2)C3)c2ncnc(N)c12` (stereo not drawn) [Example 91, 3-[9-[1-(4-amino-3-methyl-1H-pyrazolo[3,4-d]pyrimidin-1-yl)ethyl]-7-chloro-6-cyano-2,3-dihydro-1,4-benzoxazepin-4(5H)-yl]-N-isopropylazetidine-1-carboxamide] it was at most 100 nM. In the case of `Cc1nn(C(C)c2cc(Cl)c(F)c3c2OC[C@H](C)N(S(C)(=O)=O)C3)c2ncnc(N)c12` (single isomer, unassigned) [Example 35] it was at most 100 nM.

The record behind these values is patent US9944646B2, “Bicyclic azaheterocyclobenzylamines as PI3K inhibitors” (Incyte Corporation, priority 2012, dated 2018).
